Results reported in ChEMBL document CHEMBL1201862, “PubChem BioAssay data set” (2004).
The source made the active and inactive calls.

Legend:
[1] = biological target: T1, Alkaline phosphatase, tissue-nonspecific isozyme (Homo sapiens, UniProt P05186); assay: activation of tissue-nonspecific alkaline phosphatase – biochemical, TNAP isozyme, human IAP uHTS hits, selectivity assay for human IAP activator project, dose response (AID 488886); type: functional;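 also: potency of compounds raising TNAP activity as a selectivity check on IAP activators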
T1 sequence (P05186 whole entry): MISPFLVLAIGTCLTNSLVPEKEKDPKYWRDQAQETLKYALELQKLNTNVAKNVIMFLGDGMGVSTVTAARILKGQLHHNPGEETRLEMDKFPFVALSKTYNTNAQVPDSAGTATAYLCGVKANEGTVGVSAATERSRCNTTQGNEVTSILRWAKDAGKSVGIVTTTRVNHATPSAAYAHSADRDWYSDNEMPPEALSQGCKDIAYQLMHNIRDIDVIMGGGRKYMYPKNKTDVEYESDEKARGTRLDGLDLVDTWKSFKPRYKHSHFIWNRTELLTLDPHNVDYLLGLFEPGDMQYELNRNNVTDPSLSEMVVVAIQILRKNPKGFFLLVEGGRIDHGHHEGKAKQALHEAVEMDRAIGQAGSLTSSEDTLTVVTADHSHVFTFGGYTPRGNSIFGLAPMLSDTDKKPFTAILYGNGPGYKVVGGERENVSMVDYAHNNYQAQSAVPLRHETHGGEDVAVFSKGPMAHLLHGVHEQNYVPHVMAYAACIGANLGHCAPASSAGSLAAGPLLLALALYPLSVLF

[2] = biological target: Intestinal-type alkaline phosphatase (Mus musculus, UniProt P24822); assay: PubChem AID 488874; type: functional
[3] = biological target: T2, Intestinal-type alkaline phosphatase (Homo sapiens, UniProt P09923); assay: human intestinal alkaline phosphatase activators, dose response, biochemical, luminescence, uHTS hits (AID 463120); type: functional
[4] = biological target: T2, Intestinal-type alkaline phosphatase; assay: activation of human intestinal alkaline phosphatase – biochemical, luminescent, uHTS hits, set 2, dose response (AID 488817); type: functional;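 also: potency of activators that raise enzyme activity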
[5] = biological target: DNA topoisomerase (Yersinia pestis, UniProt A0A2S9PM60); assay: Yersinia topoisomerase I cleavage product accumulation – biochemical, cherry-pick, dose response (AID 588525)
[6] = system: HEK293; assay: cells; type: functional, cell-based; conditions: Homo sapiens
[7] = biological target: Nucleotide-binding oligomerization domain-containing protein 2 (Homo sapiens, UniProt Q9HC29); assay: inhibition of NOD2-driven NF-kB reporter – cell-based, luminescence, uHTS, HEK293 (AID 1566); type: functional
[8] = system: HEK293; assay: NOD2 signaling inhibitors in MDP-stimulated cells, cell-based, uHTS, luminescence (AID 2001); type: functional; conditions: Homo sapiens
[9] = blockers of CRF-binding protein–CRF-R2 complex – cell-based, uHTS hits, 384-well, dose response (AID 651639); type: functional, Homo sapiens; conditions: read-out: IC50_Mean
[10] = system: HEK293; assay: inhibition of NOD1-driven NF-kB reporter – cell-based, luminescence, uHTS, primary screen (AID 1578); type: functional; conditions: Homo sapiens
[11] = system: HEK293; assay: cells; conditions: Homo sapiens
[12] = system: HEK293; assay: cells; type: functional, cell-based; conditions: Homo sapiens; remark: listed apart in the source
[13] = system: HEK293; assay: cells; type: functional, cell-based; conditions: Homo sapiens; remark: listed apart in the source
[14] = biological target: Tumor necrosis factor (Homo sapiens, UniProt P01375); assay: analog potency on TNFa NF-kB signaling – cell-based, revised, SAR follow-up (AID 2337); type: functional
[15] = biological target: T3, Corticotropin-releasing factor receptor 2/Corticotropin-releasing factor-binding protein (Homo sapiens, UniProt P24387+Q13324); assay: Dose Response confirmation of uHTS hits for small molecule antagonists of the CRF-binding protein and CRF-R2 receptor complex.; type: functional; conditions: read-out: IC50_Mean
T3 sequence (Q13324 whole entry): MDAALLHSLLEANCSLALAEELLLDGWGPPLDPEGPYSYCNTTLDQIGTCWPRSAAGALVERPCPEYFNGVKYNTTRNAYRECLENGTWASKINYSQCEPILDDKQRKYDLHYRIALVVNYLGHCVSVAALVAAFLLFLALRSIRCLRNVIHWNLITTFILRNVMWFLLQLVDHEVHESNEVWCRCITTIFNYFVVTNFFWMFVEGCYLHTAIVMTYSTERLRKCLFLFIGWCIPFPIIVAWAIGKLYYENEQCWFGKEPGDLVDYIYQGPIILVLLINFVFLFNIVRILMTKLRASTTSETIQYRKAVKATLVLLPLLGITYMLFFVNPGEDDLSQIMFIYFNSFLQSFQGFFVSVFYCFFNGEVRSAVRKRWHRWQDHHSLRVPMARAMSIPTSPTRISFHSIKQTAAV
T3 sequence (P24387 whole entry): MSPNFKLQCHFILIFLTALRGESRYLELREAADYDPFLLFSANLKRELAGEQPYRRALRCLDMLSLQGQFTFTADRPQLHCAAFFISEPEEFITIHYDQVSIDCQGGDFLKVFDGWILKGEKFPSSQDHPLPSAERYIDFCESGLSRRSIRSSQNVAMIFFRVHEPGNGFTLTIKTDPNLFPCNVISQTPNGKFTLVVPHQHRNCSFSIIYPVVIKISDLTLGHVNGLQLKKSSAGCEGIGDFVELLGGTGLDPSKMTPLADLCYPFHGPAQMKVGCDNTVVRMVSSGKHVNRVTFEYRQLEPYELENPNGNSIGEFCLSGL

[16] = biological target: Nucleotide-binding oligomerization domain-containing protein 1 (Homo sapiens, UniProt Q9Y239); assay: blockers of NOD1 pathway activity – revised, SAR follow-up (AID 2333); type: functional
[17] = biological target: T3, Corticotropin-releasing factor receptor 2/Corticotropin-releasing factor-binding protein; assay: activators of CRF receptor 2 with binding protein – uHTS hits, confirmation (AID 602473); type: functional; conditions: read-out: EC50_Mean
[18] = NIH3T3 cell viability loss – ATP luminescence, mouse fibroblasts, counter-screen, dose response (AID 2010); type: functional, cell-based;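 also: cells exposed to compound for about 90 hours before reading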
[19] = biological target: ADP-ribosylation factor GTPase-activating protein 1 (Rattus norvegicus, UniProt Q62848); assay: Fluorescence polarization-based biochemical high throughput dose response screening assay to identify inhibitors of ADP-ribosylation factor GTPase activating protein 1 (ARFGAP1).; type: functional
[20] = Trypanosoma cruzi growth suppression in host cells – NIH3T3 host cells, beta-gal luminescence, confirmation (AID 2044); type: functional, cell-based;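 also: intracellular parasites grown in NIH/3T3 mouse fibroblasts as host cells; luminescent beta-galactosidase reporter signal from transgenic T. cruzi replicating inside host cells; inhibitors lower the luminescence signal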
[21] = biological target: Dual specificity tyrosine-phosphorylation-regulated kinase 1A (Rattus norvegicus, UniProt Q63470); type: biochemical, Homo sapiens
[22] = biological target: FAD-linked sulfhydryl oxidase ALR (Homo sapiens, UniProt P55789); assay: ALR-catalysed DTT oxidation blockers – biochemical, H2O2 detection, luminescence, cherry-pick, dose response (AID 493248)
[23] = biological target: Dual specificity protein kinase CLK1 (Homo sapiens, UniProt P49759); assay: inhibition of human CLK1 activity – biochemical, cherry-picked samples, selectivity assay for Dyrk1A inhibitor project, dose response (AID 588811)
Dual specificity protein kinase CLK1, sequence (P49759 whole entry): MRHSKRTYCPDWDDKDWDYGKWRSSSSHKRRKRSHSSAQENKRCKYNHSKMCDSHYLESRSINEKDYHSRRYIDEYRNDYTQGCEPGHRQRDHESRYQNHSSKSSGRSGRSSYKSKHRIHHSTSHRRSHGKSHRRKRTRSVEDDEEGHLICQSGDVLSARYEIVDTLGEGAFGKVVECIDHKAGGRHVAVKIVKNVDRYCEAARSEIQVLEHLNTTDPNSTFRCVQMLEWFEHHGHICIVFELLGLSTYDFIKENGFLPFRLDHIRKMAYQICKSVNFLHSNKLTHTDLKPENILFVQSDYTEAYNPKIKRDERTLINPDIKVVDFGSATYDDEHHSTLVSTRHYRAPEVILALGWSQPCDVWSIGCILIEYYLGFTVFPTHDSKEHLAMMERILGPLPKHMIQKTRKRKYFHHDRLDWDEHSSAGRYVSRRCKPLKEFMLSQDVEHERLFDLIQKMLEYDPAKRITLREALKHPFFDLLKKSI

T2 sequence (P09923 whole entry): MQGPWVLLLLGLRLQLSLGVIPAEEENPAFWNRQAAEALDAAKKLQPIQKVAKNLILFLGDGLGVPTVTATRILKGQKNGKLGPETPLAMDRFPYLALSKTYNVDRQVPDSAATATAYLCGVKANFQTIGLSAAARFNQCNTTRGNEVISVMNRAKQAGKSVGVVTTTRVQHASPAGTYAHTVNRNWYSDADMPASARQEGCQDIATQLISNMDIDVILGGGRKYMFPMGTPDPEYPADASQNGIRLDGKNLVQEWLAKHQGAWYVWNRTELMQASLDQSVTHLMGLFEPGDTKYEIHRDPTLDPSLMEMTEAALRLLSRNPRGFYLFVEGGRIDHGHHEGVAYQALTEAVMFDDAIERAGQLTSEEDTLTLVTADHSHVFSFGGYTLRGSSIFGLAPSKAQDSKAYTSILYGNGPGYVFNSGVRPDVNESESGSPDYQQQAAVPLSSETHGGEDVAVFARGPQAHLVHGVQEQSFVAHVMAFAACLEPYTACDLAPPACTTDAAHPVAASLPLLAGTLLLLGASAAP
Nucleotide-binding oligomerization domain-containing protein 1, sequence (Q9Y239 whole entry, the tested form may be a part): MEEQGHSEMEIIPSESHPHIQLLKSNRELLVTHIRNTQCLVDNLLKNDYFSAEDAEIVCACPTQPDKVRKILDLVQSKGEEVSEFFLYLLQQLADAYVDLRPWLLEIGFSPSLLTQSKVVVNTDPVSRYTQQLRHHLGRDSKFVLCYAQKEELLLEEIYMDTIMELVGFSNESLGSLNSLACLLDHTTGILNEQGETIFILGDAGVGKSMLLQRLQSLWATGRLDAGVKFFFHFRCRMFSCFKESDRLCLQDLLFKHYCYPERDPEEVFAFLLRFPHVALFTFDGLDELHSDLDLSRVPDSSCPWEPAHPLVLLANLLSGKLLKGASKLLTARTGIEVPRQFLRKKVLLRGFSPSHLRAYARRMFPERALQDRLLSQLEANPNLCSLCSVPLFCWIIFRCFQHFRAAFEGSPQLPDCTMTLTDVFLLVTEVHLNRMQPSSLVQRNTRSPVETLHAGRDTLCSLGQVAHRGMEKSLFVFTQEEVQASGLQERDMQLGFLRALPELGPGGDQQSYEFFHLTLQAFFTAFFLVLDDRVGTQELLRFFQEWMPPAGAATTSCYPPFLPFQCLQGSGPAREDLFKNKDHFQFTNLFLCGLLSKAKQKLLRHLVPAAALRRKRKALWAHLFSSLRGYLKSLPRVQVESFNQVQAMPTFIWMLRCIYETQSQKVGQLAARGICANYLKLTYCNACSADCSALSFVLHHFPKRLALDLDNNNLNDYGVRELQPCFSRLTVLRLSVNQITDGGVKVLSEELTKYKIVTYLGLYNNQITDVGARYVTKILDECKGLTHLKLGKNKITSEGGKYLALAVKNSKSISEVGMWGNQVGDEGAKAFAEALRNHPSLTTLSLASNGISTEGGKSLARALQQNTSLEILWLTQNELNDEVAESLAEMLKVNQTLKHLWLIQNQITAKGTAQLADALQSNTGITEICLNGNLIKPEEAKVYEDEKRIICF
FAD-linked sulfhydryl oxidase ALR, sequence (P55789 whole entry): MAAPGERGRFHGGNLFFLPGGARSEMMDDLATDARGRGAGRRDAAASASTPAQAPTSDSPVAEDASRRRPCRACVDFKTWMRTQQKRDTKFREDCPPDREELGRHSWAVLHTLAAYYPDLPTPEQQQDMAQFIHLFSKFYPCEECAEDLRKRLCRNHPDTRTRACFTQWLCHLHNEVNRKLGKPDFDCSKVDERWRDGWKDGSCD
DNA topoisomerase, sequence (A0A2S9PM60 whole entry): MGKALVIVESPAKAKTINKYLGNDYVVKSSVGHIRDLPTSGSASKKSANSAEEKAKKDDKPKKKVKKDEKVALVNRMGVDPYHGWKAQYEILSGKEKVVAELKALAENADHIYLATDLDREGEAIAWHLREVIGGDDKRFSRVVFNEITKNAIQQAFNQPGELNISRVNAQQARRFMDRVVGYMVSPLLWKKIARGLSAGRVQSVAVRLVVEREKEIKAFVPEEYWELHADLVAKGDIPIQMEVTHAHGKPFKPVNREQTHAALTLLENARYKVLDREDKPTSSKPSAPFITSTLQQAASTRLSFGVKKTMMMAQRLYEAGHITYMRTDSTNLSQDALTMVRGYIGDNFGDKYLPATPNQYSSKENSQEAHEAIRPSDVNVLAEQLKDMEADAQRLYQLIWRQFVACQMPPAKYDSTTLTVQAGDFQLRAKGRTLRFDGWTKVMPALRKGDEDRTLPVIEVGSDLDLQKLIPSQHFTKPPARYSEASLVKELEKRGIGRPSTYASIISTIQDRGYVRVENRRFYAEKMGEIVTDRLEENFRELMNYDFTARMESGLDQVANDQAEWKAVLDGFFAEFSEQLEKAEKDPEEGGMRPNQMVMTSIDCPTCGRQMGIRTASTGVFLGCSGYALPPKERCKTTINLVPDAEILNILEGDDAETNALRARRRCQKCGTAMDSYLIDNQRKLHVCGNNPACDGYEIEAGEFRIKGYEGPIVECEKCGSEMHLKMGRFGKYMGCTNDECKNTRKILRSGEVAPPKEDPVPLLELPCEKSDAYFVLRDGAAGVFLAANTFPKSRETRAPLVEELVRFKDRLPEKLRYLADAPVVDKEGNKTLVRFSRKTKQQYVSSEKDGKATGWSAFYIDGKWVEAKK
Intestinal-type alkaline phosphatase (Mus musculus, UniProt P24822), sequence (P24822 whole entry): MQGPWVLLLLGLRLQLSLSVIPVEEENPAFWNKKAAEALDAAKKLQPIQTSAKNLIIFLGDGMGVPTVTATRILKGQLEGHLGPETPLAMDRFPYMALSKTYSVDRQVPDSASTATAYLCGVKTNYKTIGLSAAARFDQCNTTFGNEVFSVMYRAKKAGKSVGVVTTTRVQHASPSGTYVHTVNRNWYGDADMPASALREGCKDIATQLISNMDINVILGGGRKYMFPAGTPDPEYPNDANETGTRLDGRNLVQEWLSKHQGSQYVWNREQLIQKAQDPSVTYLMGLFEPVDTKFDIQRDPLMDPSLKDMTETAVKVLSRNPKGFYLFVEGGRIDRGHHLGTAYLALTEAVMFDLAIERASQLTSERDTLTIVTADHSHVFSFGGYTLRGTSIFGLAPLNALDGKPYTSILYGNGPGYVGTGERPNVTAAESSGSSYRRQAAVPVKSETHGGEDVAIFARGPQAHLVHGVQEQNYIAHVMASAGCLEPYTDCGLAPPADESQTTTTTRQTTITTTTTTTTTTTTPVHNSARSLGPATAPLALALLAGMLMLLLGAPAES
ADP-ribosylation factor GTPase-activating protein 1, sequence (Q62848 whole entry): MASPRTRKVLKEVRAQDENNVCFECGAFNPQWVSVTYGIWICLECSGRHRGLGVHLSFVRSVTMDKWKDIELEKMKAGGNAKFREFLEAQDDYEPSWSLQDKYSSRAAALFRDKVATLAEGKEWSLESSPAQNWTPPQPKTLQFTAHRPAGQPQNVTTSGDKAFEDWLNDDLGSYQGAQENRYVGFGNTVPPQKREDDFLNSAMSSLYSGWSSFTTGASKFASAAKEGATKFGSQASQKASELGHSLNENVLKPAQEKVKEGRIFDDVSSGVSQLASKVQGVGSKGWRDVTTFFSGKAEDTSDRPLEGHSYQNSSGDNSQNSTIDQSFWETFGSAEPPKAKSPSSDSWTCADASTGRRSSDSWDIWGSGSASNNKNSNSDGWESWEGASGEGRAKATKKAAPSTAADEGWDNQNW
Tumor necrosis factor, sequence (P01375 whole entry): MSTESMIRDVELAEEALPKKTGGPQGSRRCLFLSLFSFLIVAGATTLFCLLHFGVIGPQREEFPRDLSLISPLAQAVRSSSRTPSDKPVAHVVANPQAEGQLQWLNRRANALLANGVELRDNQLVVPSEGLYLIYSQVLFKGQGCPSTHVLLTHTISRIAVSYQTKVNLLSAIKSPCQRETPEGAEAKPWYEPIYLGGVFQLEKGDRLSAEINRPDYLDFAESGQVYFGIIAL

Which EC50 [1] does the source give for `O=C(NNC(=S)NCc1ccco1)c1ccccc1Br` here?
Its EC50 is 12 µM (active).

And the IC50 [2]?
The IC50 was 53.9 µM (active).

What about the EC50 [3] of the same compound?
Its EC50 is 9.62 µM (active).

What about the EC50 [4] of the same compound?
Its EC50 is 13.8 µM (active).

Which AC50 [5] does the source give for `Nc1cc(O)nc(SCC(=O)N2N=C(c3ccc4ccccc4c3)CC2c2ccccc2)n1` (centres undefined) here?
Its AC50 is 16.1 µM (active).

Which IC50 [6] does the source give for `CC1CCN(S(=O)(=O)c2nnc(NC(=O)c3cccc(Cl)c3)s2)CC1` here?
The IC50 was > 20 µM (inactive).

And the EC50 [7]?
Its EC50 is 16.8 µM (active).

What about the IC50 [8] of the same compound?
The IC50 was 9.2 µM (active).

And the IC50 [9]?
The IC50 was > 20 µM (inactive).

What about the EC50 [10] of the same compound?
The EC50 was 2.64 µM (active).

What about the IC50 [11] of the same compound?
Its IC50 is 17.2 µM (active).

What about the IC50 [12] of the same compound?
The IC50 was > 20 µM (inactive).

What about the IC50 [13] of the same compound?
Its IC50 is 11.1 µM (active).

What about the IC50 [14] of the same compound?
Its IC50 is 6.64 µM (active).

What about the IC50 [15] of the same compound?
Its IC50 is 14.6 µM (active).

And the IC50 [16]?
Its IC50 is 5.14 µM (active).

What about the EC50 [17] of the same compound?
The EC50 was > 53 µM (inactive).

Which EC50 [18] does the source give for `O=C(/C=C/c1ccccc1)Nc1nc(-c2ccncc2)cs1` here?
Its EC50 is 17.6 µM (active).

What about the IC50 [19] of the same compound?
The IC50 was 28.8 µM (inactive).

And the EC50 [20]?
The EC50 was 0.843 µM (active).

And the AC50 [21]?
The AC50 was 0.103 µM (active).

Which AC50 [22] does the source give for `NC(=O)c1c(NC(=O)c2ccc(N3C(=O)CCC3=O)cc2)sc2c1CCCC2` here?
Its AC50 is 0.165 µM (active).

And the AC50 [23]?
Its AC50 is 0.853 µM (active).

What about the AC50 [21] of the same compound?
Its AC50 is 3.9 µM (active).
